{"source": "patent US9993494B2", "about": "“Compositions and methods for treating fibrotic disease” (eFFECTOR Therapeutics, Inc., priority 2014, dated 2018)", "test_system": "normal human lung fibroblasts", "assay": "Ribosomal profiling: translational efficiency in TGFβ-treated fibroblasts", "assay_type": "cell-based", "conditions": "TGFβ-treated fibroblasts", "description": "Ribosomal profiling allows for measurement of changes in transcription and translation on a genome-wide basis accompanying TGFβ-dependent transformation of fibroblasts to myofibroblasts. Ribosomal profiles of the TGFβ-treated fibroblasts from Example 1 (about 6×10^6 cells/10 cm plate) were prepared and analyzed for changes in translational efficiencies with respect to potential disease-associated cellular changes accompanying this TGFβ-induced transformation.\nBriefly, cells were washed with cold PBS supplemented with cycloheximide and lysed with 1× mammalian cell lysis buffer for 10 minutes on ice. Lysates were clarified by centrifugation for 10 minutes at 14,000 rpm and supernatants were collected. Cell lysates were processed to generate ribosomal protected fragments and total mRNA according to the instructions included with the ARTseq Ribosome Profiling Kit (Illumina, San Diego, Calif.). Sequencing of total RNA (RNA) and of ribosome-protected fragments of RNA (RPF) was carried out using RNA-Seq methodology according to the manufacturer's instructions (Illumina). To analyze the ribosomal profiles, RNA-Seq reads were processed with tools from the FASTX-Toolkit (fastq_quality_trimmer, fastx_clipper and fastx_trimmer). Unprocessed and processed reads were evaluated for a variety of quality measures using FastQC, and processed reads were mapped to the human genome using TopHat (see, e.g., Trapnell et al., Bioinformatics 25:1105, 2009). Gene-by-gene assessment of the number of fragments strictly and uniquely mapping to the coding region of each gene was conducted using HTSeq-count, a component of the HTSeq package. […] Genes with low counts in either RPF or RNA were excluded from differential analyses. Pathway and network analyses of differential data were conducted using Ingenuity Pathway Analysis (IPA)."}
{"compound": "CC(C)n1nc(-c2cc3cc(O)ccc3[nH]2)c2c(N)ncnc21", "note": "[PP242]", "values": [{"measurement": "renormalizing the translational profile of COX7C", "setting": "ENSG00000127184", "result": "− (− = <0.9)"}, {"measurement": "renormalizing the translational profile of LIF", "setting": "ENSG00000128342", "result": "− (− = <0.9)"}, {"measurement": "renormalizing the translational profile of MTUS1", "setting": "ENSG00000129422", "result": "+ (+ = 0.9 to 1.5)"}, {"measurement": "renormalizing the translational profile of ARHGEF6", "setting": "ENSG00000129675", "result": "− (− = <0.9)"}, {"measurement": "renormalizing the translational profile of RPL36", "setting": "ENSG00000130255", "result": "− (− = <0.9)"}, {"measurement": "renormalizing the translational profile of GDF15", "setting": "ENSG00000130513", "result": "− (− = <0.9)"}, {"measurement": "renormalizing the translational profile of ASS1", "setting": "ENSG00000130707", "result": "− (− = <0.9)"}, {"measurement": "renormalizing the translational profile of EIF2S3", "setting": "ENSG00000130741", "result": "− (− = <0.9)"}, {"measurement": "renormalizing the translational profile of RPL27", "setting": "ENSG00000131469", "result": "− (− = <0.9)"}, {"measurement": "renormalizing the translational profile of MATN3", "setting": "ENSG00000132031", "result": "− (− = <0.9)"}, {"measurement": "renormalizing the translational profile of PPARG", "setting": "ENSG00000132170", "result": "− (− = <0.9)"}, {"measurement": "renormalizing the translational profile of RARRES3", "setting": "ENSG00000133321", "result": "− (− = <0.9)"}, {"measurement": "renormalizing the translational profile of BIVM", "setting": "ENSG00000134897", "result": "+ (+ = 0.9 to 1.5)"}, {"measurement": "renormalizing the translational profile of ATP5G2", "setting": "ENSG00000135390", "result": "+ (+ = 0.9 to 1.5)"}, {"measurement": "renormalizing the translational profile of KRT7", "setting": "ENSG00000135480", "result": "− (− = <0.9)"}, {"measurement": "renormalizing the translational profile of HNRNPA1", "setting": "ENSG00000135486", "result": "+ (+ = 0.9 to 1.5)"}, {"measurement": "renormalizing the translational profile of IL6", "setting": "ENSG00000136244", "result": "− (− = <0.9)"}, {"measurement": "renormalizing the translational profile of RPL35", "setting": "ENSG00000136942", "result": "− (− = <0.9)"}, {"measurement": "renormalizing the translational profile of NOV", "setting": "ENSG00000136999", "result": "− (− = <0.9)"}, {"measurement": "renormalizing the translational profile of IER3", "setting": "ENSG00000137331", "result": "− (− = <0.9)"}, {"measurement": "renormalizing the translational profile of DDX60", "setting": "ENSG00000137628", "result": "− (− = <0.9)"}, {"measurement": "renormalizing the translational profile of RPLP1", "setting": "ENSG00000137818", "result": "− (− = <0.9)"}, {"measurement": "renormalizing the translational profile of PAQR5", "setting": "ENSG00000137819", "result": "− (− = <0.9)"}, {"measurement": "renormalizing the translational profile of AOX1", "setting": "ENSG00000138356", "result": "− (− = <0.9)"}, {"measurement": "renormalizing the translational profile of FGF5", "setting": "ENSG00000138675", "result": "++ (++ = 1.5 to 2.0)"}, {"measurement": "renormalizing the translational profile of PDE5A", "setting": "ENSG00000138735", "result": "− (− = <0.9)"}, {"measurement": "renormalizing the translational profile of GAS2L3", "setting": "ENSG00000139354", "result": "− (− = <0.9)"}, {"measurement": "renormalizing the translational profile of DIAPH3", "setting": "ENSG00000139734", "result": "− (− = <0.9)"}, {"measurement": "renormalizing the translational profile of MYO19", "setting": "ENSG00000141140", "result": "− (− = <0.9)"}, {"measurement": "renormalizing the translational profile of RPL13A", "setting": "ENSG00000142541", "result": "− (− = <0.9)"}, {"measurement": "renormalizing the translational profile of RPL11", "setting": "ENSG00000142676", "result": "− (− = <0.9)"}, {"measurement": "renormalizing the translational profile of ACTA1", "setting": "ENSG00000143632", "result": "− (− = <0.9)"}, {"measurement": "renormalizing the translational profile of PLEKHA6", "setting": "ENSG00000143850", "result": "− (− = <0.9)"}, {"measurement": "renormalizing the translational profile of RPL32", "setting": "ENSG00000144713", "result": "− (− = <0.9)"}, {"measurement": "renormalizing the translational profile of RPL37", "setting": "ENSG00000145592", "result": "− (− = <0.9)"}, {"measurement": "renormalizing the translational profile of BTF3", "setting": "ENSG00000145741", "result": "− (− = <0.9)"}, {"measurement": "renormalizing the translational profile of HIGD2A", "setting": "ENSG00000146066", "result": "+ (+ = 0.9 to 1.5)"}, {"measurement": "renormalizing the translational profile of CREB5", "setting": "ENSG00000146592", "result": "− (− = <0.9)"}, {"measurement": "renormalizing the translational profile of DENND2A", "setting": "ENSG00000146966", "result": "− (− = <0.9)"}, {"measurement": "renormalizing the translational profile of RPL10", "setting": "ENSG00000147403", "result": "− (− = <0.9)"}, {"measurement": "renormalizing the translational profile of EIF3H", "setting": "ENSG00000147677", "result": "− (− = <0.9)"}, {"measurement": "renormalizing the translational profile of RPL7A", "setting": "ENSG00000148303", "result": "− (− = <0.9)"}, {"measurement": "renormalizing the translational profile of EIF3M", "setting": "ENSG00000149100", "result": "− (− = <0.9)"}, {"measurement": "renormalizing the translational profile of JPH2", "setting": "ENSG00000149596", "result": "− (− = <0.9)"}, {"measurement": "renormalizing the translational profile of FAU", "setting": "ENSG00000149806", "result": "− (− = <0.9)"}, {"measurement": "renormalizing the translational profile of CCDC102B", "setting": "ENSG00000150636", "result": "− (− = <0.9)"}, {"measurement": "renormalizing the translational profile of FRMD4A", "setting": "ENSG00000151474", "result": "− (− = <0.9)"}, {"measurement": "renormalizing the translational profile of HOMER1", "setting": "ENSG00000152413", "result": "− (− = <0.9)"}, {"measurement": "renormalizing the translational profile of PLEKHH2", "setting": "ENSG00000152527", "result": "− (− = <0.9)"}, {"measurement": "renormalizing the translational profile of ANKH", "setting": "ENSG00000154122", "result": "− (− = <0.9)"}, {"measurement": "renormalizing the translational profile of ABCA6", "setting": "ENSG00000154262", "result": "− (− = <0.9)"}, {"measurement": "renormalizing the translational profile of OBSCN", "setting": "ENSG00000154358", "result": "− (− = <0.9)"}, {"measurement": "renormalizing the translational profile of ADAMTS5", "setting": "ENSG00000154736", "result": "− (− = <0.9)"}, {"measurement": "renormalizing the translational profile of OXA1L", "setting": "ENSG00000155463", "result": "− (− = <0.9)"}, {"measurement": "renormalizing the translational profile of C9orf85", "setting": "ENSG00000155621", "result": "+ (+ = 0.9 to 1.5)"}, {"measurement": "renormalizing the translational profile of RPL30", "setting": "ENSG00000156482", "result": "− (− = <0.9)"}, {"measurement": "renormalizing the translational profile of EEF1A1", "setting": "ENSG00000156508", "result": "+ (+ = 0.9 to 1.5)"}, {"measurement": "renormalizing the translational profile of NRG1", "setting": "ENSG00000157168", "result": "− (− = <0.9)"}, {"measurement": "renormalizing the translational profile of ADAMTS4", "setting": "ENSG00000158859", "result": "− (− = <0.9)"}, {"measurement": "renormalizing the translational profile of RPL8", "setting": "ENSG00000161016", "result": "− (− = <0.9)"}, {"measurement": "renormalizing the translational profile of RPL26", "setting": "ENSG00000161970", "result": "− (− = <0.9)"}, {"measurement": "renormalizing the translational profile of RPL29", "setting": "ENSG00000162244", "result": "− (− = <0.9)"}, {"measurement": "renormalizing the translational profile of CAMK2N1", "setting": "ENSG00000162545", "result": "− (− = <0.9)"}, {"measurement": "renormalizing the translational profile of IGFBP7", "setting": "ENSG00000163453", "result": "− (− = <0.9)"}, {"measurement": "renormalizing the translational profile of RPL22L1", "setting": "ENSG00000163584", "result": "− (− = <0.9)"}, {"measurement": "renormalizing the translational profile of RPL9", "setting": "ENSG00000163682", "result": "− (− = <0.9)"}]}
